Experimental data reported in EP4603105A1, “PHARMACEUTICAL COMPOSITION CONTAINING CYCLIC COMPOUND HAVING SELECTIVE KRAS INHIBITORY EFFECT AGAINST HRAS AND NRAS” (CHUGAI SEIYAKU KABUSHIKI KAISHA, priority 2022, dated 2024).
pIC50: −log10 of the molar value. *1 amine or outer side, *2 acyl side, *3 side chain or, on linkers, in order; H or OH if unused. Where a SMILES comes first, the peptide text is derived from it. Bridges are numbered along the chain shown (N, C = ends). [ ]: non-standard residue; d: D form. The star is where a group is joined. X25 = O=C([C@H](Cc1ccc(C(F)(F)F)cc1)N(CCC(F)(F)F)[*:1])[*:2]; hPhe(3-Cl-4-CF3) = N[C@@H](CCc1ccc(C(F)(F)F)c(Cl)c1)C(=O)O; X43 = COCCCN([C@@H](Cc1ccc(C(F)(F)F)cc1)C(=O)[*:2])[*:1]; X29 = C#CCN([C@@H](Cc1ccc(C(F)(F)F)cc1)C(=O)[*:2])[*:1]; X34 = COCCN([C@@H](Cc1ccc(C(F)(F)F)cc1)C(=O)[*:2])[*:1]; NPrPhe(4-CF3) = CCCN[C@@H](Cc1ccc(C(F)(F)F)cc1)C(=O)O; X46 = C=CCCN([C@@H](Cc1ccc(C)cc1)C(=O)[*:2])[*:1]; X41 = CCCN([C@@H](Cc1ccc(OC)cc1)C(=O)[*:2])[*:1]; X50 = C=CCN([C@@H](Cc1ccc(C)cc1)C(=O)[*:2])[*:1]; NPrPhe(4-Me) = CCCN[C@@H](Cc1ccc(C)cc1)C(=O)O; NMeGly(cPent) = CN[C@H](C(=O)O)C1CCCC1; Aze(3S-Me) = C[C@H]1CN[C@@H]1C(=O)O; NMeAllylGly = C=CC[C@H](NC)C(=O)O; NMeD = CN[C@@H](CC(=O)O)C(=O)O; NMeL = CN[C@@H](CC(C)C)C(=O)O; Morpholide = C1CN(*)CCO1; NMeA = CN[C@@H](C)C(=O)O; Ac5c = NC1(C(=O)O)CCCC1; Aze = O=C(O)[C@@H]1CCN1; NEtG = CCNCC(=O)O; Sar = CNCC(=O)O

Tests used:
[1] = target: GDP-bound NRAS wild-type protein (Homo sapiens, UniProt P01111); test: Binding to NRAS by surface plasmon resonance (SPR), KD and KD ratio to KRAS; conditions: ratio of KD for GDP-bound NRAS wild-type protein to KD for KRAS
Chain of GDP-bound NRAS wild-type protein (P01111 whole entry): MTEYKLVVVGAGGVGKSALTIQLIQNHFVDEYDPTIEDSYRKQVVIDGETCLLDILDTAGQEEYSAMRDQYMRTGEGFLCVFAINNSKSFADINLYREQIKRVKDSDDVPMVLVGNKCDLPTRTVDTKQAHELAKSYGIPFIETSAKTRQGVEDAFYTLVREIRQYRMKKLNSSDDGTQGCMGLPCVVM
Method in brief: (§1)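 Biotinylated GDP-bound RAS was captured at about 100–300 RU. Running buffer: HBS pH 7.4, 10 mM MgCl2, 10 µM GDP, 1 mM DTT, 0.01% Tween 20, 4% DMSO.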

HRAS wild-type protein = HRAS wild-type protein (Homo sapiens, UniProt P01112); test: Binding to HRAS by surface plasmon resonance (SPR), KD and KD ratio to KRAS; conditions: ratio of KD for HRAS wild-type protein to KD for KRAS
Chain of HRAS wild-type protein (P01112 whole entry): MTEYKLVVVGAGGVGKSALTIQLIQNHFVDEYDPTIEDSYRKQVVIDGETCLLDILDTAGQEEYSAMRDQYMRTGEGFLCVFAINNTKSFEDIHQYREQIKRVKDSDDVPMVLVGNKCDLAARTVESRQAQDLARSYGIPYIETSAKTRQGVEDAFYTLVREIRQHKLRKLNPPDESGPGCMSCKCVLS
Method in brief: as §1

[2] = system: human lung cancer strain NCI-H441; assay type: cell-based
Method in brief: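 Step one: dispense the test compound in serial DMSO dilutions. Step three: add the reagent and measure […].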

SMILES | NRAS /KRAS [1] | HRAS /KRAS (HRAS wild-type protein) | pIC50 [2]
C#CCN1C(=O)CN(C)C(=O)CN(C)C(=O)[C@H]([C@@H](C)CC)NC(=O)[C@H](CC(C)C)N(C)C(=O)C[C@@H](C(=O)N2CCOCC2)N(C)C(=O)[C@H](C2CCCC2)N(C)C(=O)C2(CCCC2)NC(=O)[C@@H]2CCCN2C(=O)[C@H](CCc2ccc(C(F)(F)F)c(Cl)c2)NC(=O)CN(C)C(=O)[C@@H]1Cc1ccc(C(F)(F)F)cc1 [PP0130] ([NMeL]I[Sar][Sar][X29][Sar][hPhe(3-Cl-4-CF3)]P[Ac5c][NMeGly(cPent)][NMeD]-Morpholide; lactam N-11) | C (A compound having a KD ratio of 0.1 or more and less than 3 is denoted as C) | C (A compound having a KD ratio of 0.1 or more and less than 3 is denoted as C) | 8.06
CC[C@H](C)[C@@H]1NC(=O)[C@H](CC(C)C)N(C)C(=O)C[C@@H](C(=O)N2CCOCC2)N(C)C(=O)[C@H](C2CCCC2)N(C)C(=O)C2(CCCC2)NC(=O)[C@@H]2CCCN2C(=O)[C@H](CCc2ccc(C(F)(F)F)c(Cl)c2)NC(=O)CN(C)C(=O)[C@H](Cc2ccc(C(F)(F)F)cc2)N(CCC(F)(F)F)C(=O)CN(C)C(=O)CN(C)C1=O [PP0131] ([NMeL]I[Sar][Sar][X25][Sar][hPhe(3-Cl-4-CF3)]P[Ac5c][NMeGly(cPent)][NMeD]-Morpholide; lactam N-11) | B (a compound having 3 or more and less than 10 is denoted as B) | C (A compound having a KD ratio of 0.1 or more and less than 3 is denoted as C) | 7.95
CC[C@H](C)[C@@H]1NC(=O)[C@H](CC(C)C)N(C)C(=O)C[C@@H](C(=O)N2CCOCC2)N(C)C(=O)[C@H](C2CCCC2)N(C)C(=O)C2(CCCC2)NC(=O)[C@@H]2CCCN2C(=O)[C@H](CCc2ccc(C(F)(F)F)c(Cl)c2)NC(=O)CN(C)C(=O)[C@H](Cc2ccc(C(F)(F)F)cc2)N(CCOC)C(=O)CN(C)C(=O)CN(C)C1=O [PP0132] ([NMeL]I[Sar][Sar][X34][Sar][hPhe(3-Cl-4-CF3)]P[Ac5c][NMeGly(cPent)][NMeD]-Morpholide; lactam N-11) | C (A compound having a KD ratio of 0.1 or more and less than 3 is denoted as C) | C (A compound having a KD ratio of 0.1 or more and less than 3 is denoted as C) | 7.83
CC[C@H](C)[C@@H]1NC(=O)[C@H](CC(C)C)N(C)C(=O)C[C@@H](C(=O)N2CCOCC2)N(C)C(=O)[C@H](C2CCCC2)N(C)C(=O)C2(CCCC2)NC(=O)[C@@H]2CCCN2C(=O)[C@H](CCc2ccc(C(F)(F)F)c(Cl)c2)NC(=O)CN(C)C(=O)[C@H](Cc2ccc(C(F)(F)F)cc2)N(CCCOC)C(=O)CN(C)C(=O)CN(C)C1=O [PP0133] ([NMeL]I[Sar][Sar][X43][Sar][hPhe(3-Cl-4-CF3)]P[Ac5c][NMeGly(cPent)][NMeD]-Morpholide; lactam N-11) | B (a compound having 3 or more and less than 10 is denoted as B) | C (A compound having a KD ratio of 0.1 or more and less than 3 is denoted as C) | 8.19
CCCN1C(=O)[C@@H]2CCN2C(=O)[C@H](C)N(C)C(=O)[C@H]([C@@H](C)CC)NC(=O)[C@H](CC(C)C)N(C)C(=O)C[C@@H](C(=O)N2CCOCC2)N(C)C(=O)[C@H](C2CCCC2)N(C)C(=O)C2(CCCC2)NC(=O)[C@@H]2CCCN2C(=O)[C@H](CCc2ccc(C(F)(F)F)c(Cl)c2)NC(=O)CN(C)C(=O)[C@@H]1Cc1ccc(OC)cc1 [PP0134] ([NMeL]I[NMeA][Aze][X41][Sar][hPhe(3-Cl-4-CF3)]P[Ac5c][NMeGly(cPent)][NMeD]-Morpholide; lactam N-11) | C (A compound having a KD ratio of 0.1 or more and less than 3 is denoted as C) | B (a compound having 3 or more and less than 10 is denoted as B) | 7.73
CCCN1C(=O)CN(C)C(=O)CN(C)C(=O)[C@H]([C@@H](C)CC)NC(=O)[C@H](CC(C)C)N(C)C(=O)C[C@@H](C(=O)N2CCOCC2)N(C)C(=O)[C@H](C2CCCC2)N(C)C(=O)C2(CCCC2)NC(=O)[C@@H]2CCCN2C(=O)[C@H](CCc2ccc(C(F)(F)F)c(Cl)c2)NC(=O)CN(C)C(=O)[C@@H]1Cc1ccc(OC)cc1 [PP0135] ([NMeL]I[Sar][Sar][X41][Sar][hPhe(3-Cl-4-CF3)]P[Ac5c][NMeGly(cPent)][NMeD]-Morpholide; lactam N-11) | B (a compound having 3 or more and less than 10 is denoted as B) | C (A compound having a KD ratio of 0.1 or more and less than 3 is denoted as C) | 7.58
CCCN1C(=O)[C@@H]2[C@@H](C)CN2C(=O)[C@H](C)N(C)C(=O)[C@H]([C@@H](C)CC)NC(=O)[C@H](CC(C)C)N(C)C(=O)C[C@@H](C(=O)N2CCOCC2)N(C)C(=O)[C@H](C2CCCC2)N(C)C(=O)C2(CCCC2)NC(=O)[C@@H]2CCCN2C(=O)[C@H](CCc2ccc(C(F)(F)F)c(Cl)c2)NC(=O)CN(C)C(=O)[C@@H]1Cc1ccc(C)cc1 [PP0138] ([NMeL]I[NMeA][Aze(3S-Me)][NPrPhe(4-Me)][Sar][hPhe(3-Cl-4-CF3)]P[Ac5c][NMeGly(cPent)][NMeD]-Morpholide; lactam N-11) | C (A compound having a KD ratio of 0.1 or more and less than 3 is denoted as C) | C (A compound having a KD ratio of 0.1 or more and less than 3 is denoted as C) | 7.69
C=CC[C@H]1C(=O)N(CC=C)[C@@H](Cc2ccc(C)cc2)C(=O)N(C)CC(=O)N[C@@H](CCc2ccc(C(F)(F)F)c(Cl)c2)C(=O)N2CCC[C@H]2C(=O)NC2(CCCC2)C(=O)N(C)[C@@H](C2CCCC2)C(=O)N(C)[C@H](C(=O)N2CCOCC2)CC(=O)N(C)[C@@H](CC(C)C)C(=O)N[C@@H]([C@@H](C)CC)C(=O)N(C)CC(=O)N1C [PP0139] ([NMeL]I[Sar][NMeAllylGly][X50][Sar][hPhe(3-Cl-4-CF3)]P[Ac5c][NMeGly(cPent)][NMeD]-Morpholide; lactam N-11) | C (A compound having a KD ratio of 0.1 or more and less than 3 is denoted as C) | C (A compound having a KD ratio of 0.1 or more and less than 3 is denoted as C) | 5.83
C=CCCN1C(=O)[C@H](CC=C)N(C)C(=O)CN(C)C(=O)[C@H]([C@@H](C)CC)NC(=O)[C@H](CC(C)C)N(C)C(=O)C[C@@H](C(=O)N2CCOCC2)N(C)C(=O)[C@H](C2CCCC2)N(C)C(=O)C2(CCCC2)NC(=O)[C@@H]2CCCN2C(=O)[C@H](CCc2ccc(C(F)(F)F)c(Cl)c2)NC(=O)CN(C)C(=O)[C@@H]1Cc1ccc(C)cc1 [PP0140] ([NMeL]I[Sar][NMeAllylGly][X46][Sar][hPhe(3-Cl-4-CF3)]P[Ac5c][NMeGly(cPent)][NMeD]-Morpholide; lactam N-11) | C (A compound having a KD ratio of 0.1 or more and less than 3 is denoted as C) | B (a compound having 3 or more and less than 10 is denoted as B) | 6.15
CCCN1C(=O)[C@@H]2[C@@H](C)CN2C(=O)[C@H](C)N(C)C(=O)[C@H]([C@@H](C)CC)NC(=O)[C@H](CC(C)C)N(C)C(=O)C[C@@H](C(=O)N2CCOCC2)N(C)C(=O)[C@H](C2CCCC2)N(C)C(=O)C2(CCCC2)NC(=O)[C@@H]2CCCN2C(=O)[C@H](CCc2ccc(C(F)(F)F)c(Cl)c2)NC(=O)CN(C)C(=O)[C@@H]1Cc1ccc(C(F)(F)F)cc1 [PP0141] ([NMeL]I[NMeA][Aze(3S-Me)][NPrPhe(4-CF3)][Sar][hPhe(3-Cl-4-CF3)]P[Ac5c][NMeGly(cPent)][NMeD]-Morpholide; lactam N-11) | C (A compound having a KD ratio of 0.1 or more and less than 3 is denoted as C) | B (a compound having 3 or more and less than 10 is denoted as B) | 8.46
CCCN1C(=O)CN(C)C(=O)CN(C)C(=O)[C@H]([C@@H](C)CC)NC(=O)[C@H](CC(C)C)N(C)C(=O)C[C@@H](C(=O)N2CCOCC2)N(C)C(=O)[C@H](C2CCCC2)N(C)C(=O)C2(CCCC2)NC(=O)CN(CC)C(=O)[C@H](CCc2ccc(C(F)(F)F)c(Cl)c2)NC(=O)CN(C)C(=O)[C@@H]1Cc1ccc(C(F)(F)F)cc1 [PP0144] ([NMeL]I[Sar][Sar][NPrPhe(4-CF3)][Sar][hPhe(3-Cl-4-CF3)][NEtG][Ac5c][NMeGly(cPent)][NMeD]-Morpholide; lactam N-11) | B (a compound having 3 or more and less than 10 is denoted as B) | C (A compound having a KD ratio of 0.1 or more and less than 3 is denoted as C) | 7.74
CCCN1C(=O)CN(C)C(=O)CN(CC)C(=O)[C@H]([C@@H](C)CC)NC(=O)[C@H](CC(C)C)N(C)C(=O)C[C@@H](C(=O)N2CCOCC2)N(C)C(=O)[C@H](C2CCCC2)N(C)C(=O)C2(CCCC2)NC(=O)[C@@H]2CCCN2C(=O)[C@H](CCc2ccc(C(F)(F)F)c(Cl)c2)NC(=O)CN(C)C(=O)[C@@H]1Cc1ccc(C(F)(F)F)cc1 [PP0145] ([NMeL]I[NEtG][Sar][NPrPhe(4-CF3)][Sar][hPhe(3-Cl-4-CF3)]P[Ac5c][NMeGly(cPent)][NMeD]-Morpholide; lactam N-11) | B (a compound having 3 or more and less than 10 is denoted as B) | B (a compound having 3 or more and less than 10 is denoted as B) | 8.06
